Results: patent publication US20240294881A1, “CELL CULTURE SUPPLEMENT FOR PRODUCING STEM CELLS, AND METHOD FOR PRODUCING STEM CELLS” (OPTICELL, INC, priority 2021, published 2024)

Assays:
A549 lung cancer cells = test: Real-time PCR of cancer stem cell and undifferentiated stem cell marker genes in cancer cell spheroids; format: cell-based, human; details: control no supplement, 2D adhesion proliferation, day 4 = 1.0
Protocol: (§1) A culture vessel treated with the cell culture supplement was prepared in the same manner as in Example 7, and the same three types of cancer cells as those in Example 7 were cultured. On day 4 and day 15 after the start of culture, spheroids of each of the three types of cancer cells were taken from the culture vessel and collected in an individual 15-mb centrifuge tube, followed by washing with phosphate buffered saline (−). After removal of the medium, cancer cells cultured in the plate free of the cell culture supplement (control) were washed with PBS (−), detached from the plate with 0.05% trypsin-EGTA and dissociated. The cancer cells were then collected in a 15-mL centrifuge tube and washed again with PBS (−). mRNA was extracted from the collected spheroids and control cells, and the expression of cancer stem cell marker genes was analyzed by real-time PCR.
(§2) Specifically, a NucleoZOL reagent (Macherey-Nagel) reagent was added to each type of cells, and RNA was extracted according to the protocol recommended by the reagent manufacturer and used as template RNA for detecting stem cell markers. For real-time PCR analysis, PCR probes from QuantiFast Probe RT-PCR Kits (QIAGEN; No. 204454) and TaqMan Gene Expression Assay Probe (Thermo Fisher Scientific) were used. PCR analysis was performed with a Rotor-Gene Q (QIAGEN) apparatus. For probes for detecting the expression of cancer stem cell marker genes, the following three PCR probes were used: CD24 (mucin-type glycoprotein, ligand for P-selectin, Oncogene), CD44 (cell surface glycoprotein involved cell-cell interaction, adhesion and migration, cancer stem cell marker), CD133 (five transmembrane glycoprotein, stem cell marker and cancer stem cell marker protein). B-actin was used as an endogenous control gene. For probes for detecting the expression of undifferentiated stem cell marker genes, three transcription factors, SOX2 (sex-determining region Y-box 2), OCT4 (octamer binding transcription factor 4), and NANOG (homeodomain transcription factor), which are used in the production of iPS cells, were used; and β-actin was used as the endogenous control gene. In the gene expression analysis, relative quantification was performed according to the ΔΔCt method (Delta Delta Ct method). The results of analysis according to the ΔΔCt method show the amount of a gene expressed by control cells under the conditions of “no cell culture supplement, 2D adhesion proliferation, day 4” as “1.0” in relative terms, and the increase rate in “the expression level in spheroid proliferation on day 15” was determined by comparison (FIGS. 23 to 25).
(§3) Coating of a culture vessel was completed in the same manner as in Examples 7 and 11, and three types of cancer cells, A549 cells, ES2 cells, and 143B cells, were cultured. For probes for detecting the expression of undifferentiated stem cell marker genes, the following three transcription factors were used: SOX2 (sex-determining region Y-box 2), OCT4 (octamer binding transcription factor 4), and NANOG (homeodomain transcription factor); and β-actin was used as an endogenous control gene. In the gene expression analysis, relative quantification was performed according to the ΔΔCt method (Delta Delta Ct method). The results of analysis according to the ΔΔCt method show the amount of a gene expressed by control cells under the conditions of “no cell culture supplement, 2D adhesion proliferation, day 4” as “1.0” in relative terms, and the increase rate in “the expression level in spheroid proliferation on day 15” was determined by comparison (FIGS. 26 to 28).

[1] = tested on: HOS-143B osteosarcoma cells; test: as above; format: cell-based, human; details: control no supplement, 2D adhesion proliferation, day 4 = 1.0
Protocol: as §1, §2, §3

Q: How did the “CD24 gene expression level (increase vs control)” value (A549 lung cancer cells; day 4 of spheroid culture) turn out when “(Pro-Hyp-Gly)n [cell culture supplement]” was run?
A: 2.2 fold

Q: What about the “CD44 gene expression level (increase vs control)” value (A549 lung cancer cells; day 4 of spheroid culture) of the same substance?
A: 1.6 fold

Q: What about the “CD133 gene expression level (increase vs control)” value (A549 lung cancer cells; day 4 of spheroid culture) of the same substance?
A: 3.4 fold

Q: What about the “NANOG gene expression level (increase vs control)” value (A549 lung cancer cells; day 4 of spheroid culture) of the same substance?
A: 10.6 fold

Q: What about the “OCT4 gene expression level (increase vs control)” value (A549 lung cancer cells; day 4 of spheroid culture) of the same substance?
A: 1.6 fold

Q: What about the “SOX2 gene expression level (increase vs control)” value (A549 lung cancer cells; day 4 of spheroid culture) of the same substance?
A: 5.0 fold

Q: And the “CD24 gene expression level (increase vs control)” value (A549 lung cancer cells; day 15 of spheroid culture)?
A: 4.2 fold

Q: And the “CD44 gene expression level (increase vs control)” value (A549 lung cancer cells; day 15 of spheroid culture)?
A: 2.9 fold

Q: And the “CD133 gene expression level (increase vs control)” value (A549 lung cancer cells; day 15 of spheroid culture)?
A: 13.5 fold

Q: And the “NANOG gene expression level (increase vs control)” value (A549 lung cancer cells; day 15 of spheroid culture)?
A: 55.7 fold

Q: And the “OCT4 gene expression level (increase vs control)” value (A549 lung cancer cells; day 15 of spheroid culture)?
A: 3.7 fold

Q: What about the “SOX2 gene expression level (increase vs control)” value (A549 lung cancer cells; day 15 of spheroid culture) of the same substance?
A: 6.0 fold

Q: And the “CD24 gene expression level (increase vs control)” value ([1]; day 4 of spheroid culture)?
A: 1.34 fold

Q: What about the “CD44 gene expression level (increase vs control)” value ([1]; day 4 of spheroid culture) of the same substance?
A: 2.3 fold

Q: And the “CD133 gene expression level (relative to control, printed as decreased)” value ([1]; day 4 of spheroid culture)?
A: 0.3 fold

Q: And the “NANOG gene expression level (increase vs control)” value ([1]; day 4 of spheroid culture)?
A: 1.6 fold

Q: And the “OCT4 gene expression level (increase vs control)” value ([1]; day 4 of spheroid culture)?
A: 2.5 fold

Q: What about the “SOX2 gene expression level (increase vs control)” value ([1]; day 4 of spheroid culture) of the same substance?
A: 3.5 fold

Q: And the “CD24 gene expression level (increase vs control)” value ([1]; day 15 of spheroid culture)?
A: 1.2 fold

Q: And the “CD44 gene expression level (increase vs control)” value ([1]; day 15 of spheroid culture)?
A: 1.9 fold

Q: What about the “CD133 gene expression level (increase vs control)” value ([1]; day 15 of spheroid culture) of the same substance?
A: 2.1 fold

Q: And the “NANOG gene expression level (increase vs control)” value ([1]; day 15 of spheroid culture)?
A: 1.4 fold

Q: What about the “OCT4 gene expression level (increase vs control)” value ([1]; day 15 of spheroid culture) of the same substance?
A: 2.4 fold

Q: What about the “SOX2 gene expression level (increase vs control)” value ([1]; day 15 of spheroid culture) of the same substance?
A: 1.6 fold
